Laboratory results: US20240376094A2, “SELECTIVE BCL-XL PROTAC COMPOUNDS AND METHODS OF USE” (Les Laboratoires Servier, priority 2021, published 2024)

How the values were obtained:
[1] = tested on: MOLT-4 cells; assay: MOLT-4 cell viability, CTG assay; type: cell-based; details: Homo sapiens, MOLT-4, 48 h
Text: The MTT colorimetric assay is based on the mitochondrial reduction of tetrazolium salt by living cells. The viable cell number is proportional to the production of formazan salts, which can be read spectrophotometrically at 540 nm. The CTG luminescent assay (CellTiter GLO, Promega) is based on a reagent which lyses cells and measures total adenosine triphosphate (ATP) content. The viable cell number is proportional to the production of ATP.
MOLT-4 cells were purchased from ATCC and cultivated in RPMI 1640 supplemented with 10% heat inactivated fetal bovine serum, penicillin (100 IU/mi), streptomycin (100 μg/ml) and L-glutamine (2 mM). Cells were cultured at 37° C. in a humidified atmosphere containing 5% […].
For CTG assay, cells were seeded in 384 microwell plates (40 μL per well) and exposed to the compounds for 48 h (11-point serial dilution with 5-fold factor, triplicates). At the end of incubation time, 40 μL of CTG solution were added per well. Wells were mixed thoroughly, and plates were incubated at room temperature for 10 minutes to stabilize luminescent signals prior to reading using a luminescence reader (PHERAStar FSX Reader, BMG Labtech).
IC50, were calculated using standard four-parametric curve fitting. IC50 is defined as the compound concentration at which the MTT or CTG signal is reduced to 50% of that measured for the control. Results shown in Table 14 represent the mean of at least 2 independent experiments.

[2] = biological target: T1, Bcl-xL (Homo sapiens, UniProt Q07817); assay: HCT116 Bcl-xL degradation, capillary-based immunoassay (WES); type: cell-based; details: HCT116, 24 h, 9-point serial dilution
T1 construct: Measured levels of Bcl-xL protein of HCT116 cells treated with the tested compounds; host or cells: HCT116
T1 sequence (Q07817 whole entry): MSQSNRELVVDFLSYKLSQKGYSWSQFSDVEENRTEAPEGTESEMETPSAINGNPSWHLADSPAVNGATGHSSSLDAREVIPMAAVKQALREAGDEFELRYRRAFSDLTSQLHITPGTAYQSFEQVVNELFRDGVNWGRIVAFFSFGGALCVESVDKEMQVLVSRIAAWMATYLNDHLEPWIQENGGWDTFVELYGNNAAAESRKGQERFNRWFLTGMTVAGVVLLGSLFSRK
Method: HCT116 cells were purchased from ATCC and cultivated in RPMI 1640 supplemented with 10% heat inactivated fetal bovine serum, penicillin (100 IU/mi), streptomycin (100 μg/ml) and L-glutamine (2 mM). Cells were cultured at 37° C. in a humidified atmosphere containing 5% CO2. Cells were seeded in 96 microwell plates, 24 h later cells were treated with compounds (2-point 10/100 nM and/or 9-point serial dilution to determine DC50; quadruplicates) during 24 h and harvested in lysis buffer containing 10 mM Hepes (pH 7.5), 150 mM KCl, 5 mM MgCl2, 1 mM EDTA, 0.4% TritonX100, protease and phosphatase inhibitors cocktails (Calbiochem).
Protein concentration in the supernatants was determined using the Pierce BCA protein assay kit (Thermo Fisher Scientific). Lysates (1.5 μg/μL) were analyzed using an automated capillary electrophoresis WES system with 2-40 kDa Wes Separation Module (25 capillary cartridges, Proteinsimple), in accordance with the manufacturer's protocols. Antibodies against the following proteins were used: Bcl-xL (#2764, Cell Signaling Technology, 1:50) and cofilin (#5175, Cell Signaling Technology, 1:1000). Signals were detected with an HRP-conjugated secondary anti-rabbit antibody (#042-206, Proteinsimple) and were quantified using Compass software (version 4.0, Proteinsimple).
Bcl-xL level was calculated by normalizing Bcl-xL values to cofilin and expressed as a percentage of the normalized value of the untreated cells. DC50 were calculated using standard four-parametric curve fitting. DC50 is defined as the compound concentration at which Bcl-xL is reduced to 50% of that measured for the control. Measured levels of Bcl-xL protein of HCT116 cells treated with the tested compounds at 2-point 10 nM/100 nM and/or 9-point for DC50 determination are shown in Table 15.

Structure (SMILES)	IC50 [1] [nM]	DC50 [2] [nM]
Cc1c(Nc2nc3ccccc3s2)nnc2c1CCCN2c1ccc(-c2cnn(CC34CC5(C)CC(C)(C3)CC(OCCN(C)CCCCCCCCCCCCC(=O)N3CCC(c6ccc7c(c6)CN(C6CCC(=O)NC6=O)C7=O)CC3)(C5)C4)c2C)c(C(=O)O)n1 (centres unmarked) [Example 78, 6-[3-(1,3-benzothiazol-2-ylamino)-4-methyl-6,7-dihydro-5H-pyrido[2,3-c]pyridazin-8-yl]-3-[1-[[3-[2-[[13-[4-[2-(2,6-dioxo-3-piperidyl)-1-oxo-isoindolin-5-yl]-1-piperidyl]-13-oxo-tridecyl]-methyl-amino]ethoxy]-5,7-dimethyl-1-adamantyl]methyl]-5-methyl-pyrazol-4-yl]pyridine-2-carboxylic acid]	4.42	0.121
Cc1c(Nc2nc3ccccc3s2)nnc2c1CCCN2c1ccc(-c2cnn(CC34CC5(C)CC(C)(C3)CC(OCCN(C)CCCCCCCCC(=O)N3CCC(c6ccc7c(c6)CN(C6CCC(=O)NC6=O)C7=O)CC3)(C5)C4)c2C)c(C(=O)O)n1 (centres unmarked) [Example 71, 6-[3-(1,3-benzothiazol-2-ylamino)-4-methyl-6,7-dihydro-5H-pyrido[2,3-c]pyridazin-8-yl]-3-[1-[[3-[2-[[9-[4-[2-(2,6-dioxo-3-piperidyl)-1-oxo-isoindolin-5-yl]-1-piperidyl]-9-oxo-nonyl]-methyl-amino]ethoxy]-5,7-dimethyl-1-adamantyl]methyl]-5-methyl-pyrazol-4-yl]pyridine-2-carboxylic acid]	10.2	> 316
Cc1ncsc1-c1ccc(CNC(=O)[C@@H]2C[C@@H](O)CN2C(=O)[C@@H](NC(=O)C2(F)CC2)C(C)(C)C)c(OCCCCCCCCCCCCCCCN(C)CCOC23CC4(C)CC(C)(CC(Cn5ncc(-c6ccc(N7CCCc8c7nnc(Nc7nc9ccccc9s7)c8C)nc6C(=O)O)c5C)(C4)C2)C3)c1 [Example 83, 6-[3-(1,3-benzothiazol-2-ylamino)-4-methyl-6,7-dihydro-5H-pyrido[2,3-c]pyridazin-8-yl]-3-[1-[[3-[2-[15-[2-[[[(2S,4R)-1-[(2S)-2-[(1-fluorocyclopropanecarbonyl)amino]-3,3-dimethyl-butanoyl]-4-hydroxy-pyrrolidine-2-carbonyl]amino]methyl]-5-(4-methylthiazol-5-yl)phenoxy]pentadecyl-methyl-amino]ethoxy]-5,7-dimethyl-1-adamantyl]methyl]-5-methyl-pyrazol-4-yl]pyridine-2-carboxylic acid]	4.72	4.49
Cc1c(Nc2nc3ccccc3s2)nnc2c1CCCN2c1ccc(-c2cnn(CC34CC5(C)CC(C)(C3)CC(OCCN(C)CCCCCCCC(=O)N3CCC(c6ccc7c(c6)CN(C6CCC(=O)NC6=O)C7=O)CC3)(C5)C4)c2C)c(C(=O)O)n1 (centres unmarked) [Example 68, 6-[3-(1,3-benzothiazol-2-ylamino)-4-methyl-6,7-dihydro-5H-pyrido[2,3-c]pyridazin-8-yl]-3-[1-[[3-[2-[[8-[4-[2-(2,6-dioxo-3-piperidyl)-1-oxo-isoindolin-5-yl]-1-piperidyl]-8-oxo-octyl]-methyl-amino]ethoxy]-5,7-dimethyl-1-adamantyl]methyl]-5-methyl-pyrazol-4-yl]pyridine-2-carboxylic acid]	15.3	> 316
Cc1ncsc1-c1ccc([C@H](C)NC(=O)[C@@H]2C[C@@H](O)CN2C(=O)[C@@H](NC(=O)CCOCCOCCN(C)CCOC23CC4(C)CC(C)(CC(Cn5ncc(-c6ccc(N7CCCc8c7nnc(Nc7nc9ccccc9s7)c8C)nc6C(=O)O)c5C)(C4)C2)C3)C(C)(C)C)cc1 [Example 173, 6-[3-(1,3-benzothiazol-2-ylamino)-4-methyl-6,7-dihydro-5H-pyrido[2,3-c]pyridazin-8-yl]-3-[1-[[3-[2-[2-[2-[3-[[(1S)-1-[(2S,4R)-4-hydroxy-2-[[(1S)-1-[4-(4-methylthiazol-5-yl)phenyl]ethyl]carbamoyl]pyrrolidine-1-carbonyl]-2,2-dimethyl-propyl]amino]-3-oxo-propoxy]ethoxy]ethyl-methyl-amino]ethoxy]-5,7-dimethyl-1-adamantyl]methyl]-5-methyl-pyrazol-4-yl]pyridine-2-carboxylic acid]	35.6	> 316
Cc1c(Nc2nc3ccccc3s2)nnc2c1CCCN2c1ccc(-c2cnn(CC34CC5(C)CC(C)(C3)CC(OCCN(C)CCCCCCCCOc3cccc6c3C(=O)N(C3CCC(=O)NC3=O)C6=O)(C5)C4)c2C)c(C(=O)O)n1 (centres unmarked) [Example 143, 6-[3-(1,3-benzothiazol-2-ylamino)-4-methyl-6,7-dihydro-5H-pyrido[2,3-c]pyridazin-8-yl]-3-[1-[[3-[2-[8-[2-(2,6-dioxo-3-piperidyl)-1,3-dioxo-isoindolin-4-yl]oxyoctyl-methyl-amino]ethoxy]-5,7-dimethyl-1-adamantyl]methyl]-5-methyl-pyrazol-4-yl]pyridine-2-carboxylic acid]	5.28	> 316
Cc1c(Nc2nc3ccccc3s2)nnc2c1CCCN2c1ccc(-c2cnn(CC34CC5(C)CC(C)(C3)CC(OCCN(C)CCCCCCCCCCCC(=O)N3CCC(c6ccc7c(c6)CN(C6CCC(=O)NC6=O)C7=O)CC3)(C5)C4)c2C)c(C(=O)O)n1 (centres unmarked) [Example 69, 6-[3-(1,3-benzothiazol-2-ylamino)-4-methyl-6,7-dihydro-5H-pyrido[2,3-c]pyridazin-8-yl]-3-[1-[[3-[2-[[12-[4-[2-(2,6-dioxo-3-piperidyl)-1-oxo-isoindolin-5-yl]-1-piperidyl]-12-oxo-dodecyl]-methyl-amino]ethoxy]-5,7-dimethyl-1-adamantyl]methyl]-5-methyl-pyrazol-4-yl]pyridine-2-carboxylic acid]	5.14	0.711
CN[C@@H](C)C(=O)N[C@H](C(=O)N1CCC[C@H]1c1nc(C(=O)c2cccc(OCCCCCCN(C)CCOC34CC5(C)CC(C)(CC(Cn6ncc(-c7ccc(N8CCCc9c8nnc(Nc8nc%10ccccc%10s8)c9C)nc7C(=O)O)c6C)(C5)C3)C4)c2)cs1)C1CCCCC1 [Example 102, 6-[3-(1,3-benzothiazol-2-ylamino)-4-methyl-6,7-dihydro-5H-pyrido[2,3-c]pyridazin-8-yl]-3-[1-[[3-[2-[6-[3-[2-[(2S)-1-[(2S)-2-cyclohexyl-2-[[(2S)-2-(methylamino)propanoyl]amino]acetyl]pyrrolidin-2-yl]thiazole-4-carbonyl]phenoxy]hexyl-methyl-amino]ethoxy]-5,7-dimethyl-1-adamantyl]methyl]-5-methyl-pyrazol-4-yl]pyridine-2-carboxylic acid]	4.07	0.448
Cc1c(Nc2nc3ccccc3s2)nnc2c1CCCN2c1ccc(-c2cnn(CC34CC5(C)CC(C)(C3)CC(OCCN(C)CCCCCCCCCCCCCCOc3ccc6c(c3)C(=O)N(C3CCC(=O)NC3=O)C6=O)(C5)C4)c2C)c(C(=O)O)n1 (centres unmarked) [Example 142, 6-[3-(1,3-benzothiazol-2-ylamino)-4-methyl-6,7-dihydro-5H-pyrido[2,3-c]pyridazin-8-yl]-3-[1-[[3-[2-[14-[2-(2,6-dioxo-3-piperidyl)-1,3-dioxo-isoindolin-5-yl]oxytetradecyl-methyl-amino]ethoxy]-5,7-dimethyl-1-adamantyl]methyl]-5-methyl-pyrazol-4-yl]pyridine-2-carboxylic acid]	3.76	0.341
CN[C@@H](C)C(=O)N[C@H](C(=O)N1CCC[C@H]1c1nc(C(=O)c2cccc(OCCCCCCCCCCN(C)CCOC34CC5(C)CC(C)(CC(Cn6ncc(-c7ccc(N8CCCc9c8nnc(Nc8nc%10ccccc%10s8)c9C)nc7C(=O)O)c6C)(C5)C3)C4)c2)cs1)C1CCCCC1 [Example 98, 6-[3-(1,3-benzothiazol-2-ylamino)-4-methyl-6,7-dihydro-5H-pyrido[2,3-c]pyridazin-8-yl]-3-[1-[[3-[2-[10-[3-[2-[(2S)-1-[(2S)-2-cyclohexyl-2-[[(2S)-2-(methylamino)propanoyl]amino]acetyl]pyrrolidin-2-yl]thiazole-4-carbonyl]phenoxy]decyl-methyl-amino]ethoxy]-5,7-dimethyl-1-adamantyl]methyl]-5-methyl-pyrazol-4-yl]pyridine-2-carboxylic acid]	4.74	0.362
